Experimental data from patent EP1695711A2, “Parenteral formulations comprising boronic acid species for selective thrombin inhibition” (TRIGEN LIMITED, priority 2002, dated 2004).
Where a name gives a salt, the structure may show the parent alone. Read-outs that look alike come from different tables or passages of the source.

Assays:
thrombin = molecular target: T1, thrombin (Homo sapiens, UniProt P00734); test: Thrombin amidolytic assay (S2238, Vmax); type: biochemical; settings: TRI 50b as external control; Fig. 1
T1 construct: purchased HTI, via Cambridge Bioscience
Experimental: Chromogenic substrate S2238 dissolved to 4mM (25mg + 10ml) in water. Diluted to 50uM with assay buffer for use in assay at 5µM. (S2238 is H-D-Phe-Pip-Arg-pNA).
Thrombin obtained from HTI, via Cambridge Bioscience, and aliquoted at 1mg/ml with assay buffer. Dilute to 100ng/ml with assay buffer and then a further 1 in 3 for use in the assay.
• 110µl assay buffer • 50ul 5µg/ml thrombin • 20µl vehicle or compound solution • 5 min at 37°C • 20µl 50µM S2238

[1] = Stability: HPLC-PDA assay before and after drying; type: physicochemical; settings: for Amount: 5 mg in 5 mL
Experimental: An assay of TRI 50c and its sodium and lysine salts before and after drying.
For sample analysis, 5 mg of dried and non-dried material was weighed in a 5 mL volumetric flask and dissolved in 1 mL acetonitrile and filled up with demineralised water to 5 mL.
The quantitative evaluation was performed using an HPLC-PDA method.

thrombin time and APTT = type: in vivo, beagle dogs; settings: dog
Experimental: Plasma was prepared by centrifugation and frozen at minus 20°C pending analysis.

[2] = rat, in vivo, iv, 1 mg/kg
Experimental: (§1) Rats, body weight circa 250-300g were used. The animals were fasted only on the day of use for the iv stage.
(§2) Just before administration, 5 volumes of this solution is mixed with 3 volumes of 5% kollidon 17 8F.
(§3) Both compounds were given at a dose of 1.0mg/kg iv.
(§4) The compounds were dosed in a PEG/ethanol/kollidon formulation which was prepared immediately before, as described immediately under the heading "Dose": Stock 15.0mg/ml. This was dosed at 1.33ml/kg (equivalent to 30mg/kg).
(§5) A pre dose sample was taken followed by: 0, 2, 5, 10, 20, 30, 40, 60 and 90 minutes post dose.
(§6) This was obtained by centrifugation (3000 RPM for 10 min) and stored at -20°C prior to analysis.

[3] = tested on: platelet procoagulant activity; test: Inhibition of platelet procoagulant activity; type: cell-based
Source text: Platelet pro-coagulant activity may be observed as the increase, in rate of activation of prothrombin by factor Xa in the presence of factor Va upon the addition of platelets pretreated with thrombin, caused by thrombin alone, collagen alone or a mixture of thrombin and collagen. This property is due to an increase in anionic phospholipid on the surface of the platelet with concomitant release of microvesicle from the surface. This is an essential physiological reaction and people whose platelets have reduced ability to generate procoagulant activity (Scott syndrome) show an increased tendency for bleeding.
Washed platelets were treated with either 1.15nM thrombin, 23µg/ml collagen or a mixture of both at the same concentration at 37°C. TRI 50b was added either for 1 minute prior to the addition of activator or immediately after the incubation with activator. Platelet procoagulant activity was determined as described previously (Goodwin C A et al, Biochem J. 1995 8, 308: 15-21).

washed platelets = test: Aggregation of washed platelets; type: cell-based
[4] = i.v. pharmacokinetics in rats; settings: rat
Experimental: as §1, §2, §3, §4, §5, §6

[5] = Hydrolysis under HPLC assay conditions; type: physicochemical; settings: acid conditions / sample preparation of an HPLC assay
platelet rich thrombus = test: Rabbit extracorporeal shunt model; type: in vivo, NZW rabbits; settings: for THROMBUS WEIGHT AFTER 20 minute run: n=5
Source text: The technique describes an animal model in which a platelet rich thrombus is produced. The activity of TRI 50b and heparin are compared.
The carotid artery and jugular vein of anaesthetised rabbits were used to create an extracorporeal circuit containing a suspended foreign surface (silk thread). Thrombus deposition is initiated by creation of high sheer stress turbulent arterial blood flow, platelet activation, followed by coagulation in the presence of thrombogenic surfaces. Histopathological studies have shown that the thrombus is platelet rich.
NZW rabbits (males 2.5-3.5 kg) were used. The animals were allowed food and water up to the induction of anaesthesia.
Animals were premedicated with […] (Hypnorm) 0.15 ml total by intramuscular injection. General anaesthesia was induced with methohexitone (10 mg/ml) to effect, followed by endotracheal intubation. Anaesthesia was maintained with isoflurane (1-2.0 %) carried in oxygen /nitrous oxide.
The animals were placed in dorsal recumbency and the ventral cervical region prepared for surgery. The left carotid artery and right jugular vein were exposed. The artery was cannulated with a large Portex® catheter (yellow gauge), cut to a suitable length. The vein was cannulated with a Silastic® catheter. The shunt comprised of a 5 cm length of 'auto analyser' line (purple /white gauge). Joins to the shunt on the arterial side were made with intermediate size Silastic® tubing. The shunt was filled with saline before exposure to the circulation. The right femoral artery was cannulated for the measurement of blood pressure.
The central section of the shunt contained a thread 3 centimetres in length. This consisted of 000 gauge Gutterman sewing silk so as to give four strands with a single knot at the end. (The knot section was outside the shunt).
Blood flow velocity was determined by use of 'Doppler' probes (Crystal Biotech). A silastic probe was positioned over the carotid artery at the point of insertion of the arterial catheter. Flow was recorded on a chart recorder using heat sensitive paper.

[6] = Maximum aqueous solubility (shaken in water at 37°C, filtered, UV spectrum); type: physicochemical; settings: read-out: Solubility when dissolved at 50mg/ml
[7] = dry (desiccator over phosphorus pentoxide for 1 week), listed as TRI 50c Na salt, monosodium salt
[8] = non-dried, listed as TRI 50c Na salt, monosodium salt
[9] = dry (desiccator over phosphorus pentoxide for 1 week)

COCCC[C@H](NC(=O)[C@@H]1CCCN1C(=O)[C@@H](Cc1ccccc1)NC(=O)OCc1ccccc1)B(O)O [magnesium salt of TRI 50c]
activity in thrombin amidolytic assay (thrombin): the same activity as TRI 50b

COCCC[C@H](NC(=O)[C@@H]1CCCN1C(=O)[C@@H](Cc1ccccc1)NC(=O)OCc1ccccc1)B(O)O [TRI 50c sodium salt, Cbz-(R)-Phe-(S)-Pro-(R)-Mpg-B(OH)2 monosodium salt]
Amount [1, 7]: 1024 µg/mL | Purity (% area) [1, 7]: 98.81 % area | Amount [1, 8]: 1005.8 µg/mL | Purity (% area) [1, 8]: 98.61 % area | thrombin time (thrombin time and APTT; 1.0 mg/kg i.v., 2 minutes post dose, base line 14.3 seconds, listed as sodium salt, monosodium salt, 1 mg/kg): 154.4 s | thrombin time (thrombin time and APTT; 1.0 mg/kg i.v., 2 minutes post dose, base line 14.3 seconds, monosodium salt, 1 mg/kg): 154 s | thrombin time (thrombin time and APTT; 1.0 mg/kg i.v., one hour post dose): 26 s | elevation in the APTT (thrombin time and APTT; 1.0 mg/kg i.v., post dose): 1.3 times | APTT (thrombin time and APTT; 1.0 mg/kg i.v., post dose, base line 19 seconds): 25 s | Thrombin clotting time elevation above base line (thrombin time and APTT; 1.0 mg/kg i.v., two minutes following dosing): 10.8 times | tolerability / adverse events (thrombin time and APTT; in vivo, iv, 1 mg/kg): tolerated well with no adverse events

COCCC[C@H](NC(=O)[C@@H]1CCCN1C(=O)[C@@H](Cc1ccccc1)NC(=O)OCc1ccccc1)B(O)O [TRI 50c, Cbz-(R)-Phe-(S)-Pro-(R)-boroMpg-OH]
Purity (% area) [1, 9]: 82.00 % area | Amount [1, 9]: 1000.0 µg/mL | Area under curve [2]: 1.48 | Max Plasma Concentration (observed) [2]: 2.35 | Volume Distribution [2]: 0.59 L/kg

COCCC[C@H](NC(=O)[C@@H]1CCCN1C(=O)[C@@H](Cc1ccccc1)NC(=O)OCc1ccccc1)B(O)O [TRI 50c Lys salt]
Purity (% area) [1, 9]: 90.17 % area | Amount [1, 9]: 813.3 µg/mL | Purity (% area) ([1]; non-dried): 92.25 % area | Amount ([1]; non-dried): 809.8 µg/mL

COCCC[C@H](NC(=O)[C@@H]1CCCN1C(=O)[C@@H](Cc1ccccc1)NC(=O)OCc1ccccc1)B1OC(C)(C)C(C)(C)O1 [TRI 50b, Cbz-(R)-Phe-Pro-BoroMpg-OPinacol]
IC50 ([3]; agonist Collagen (23µg/ml), TRI 50b added 1 minute prior to activator, read-out: I C50 plus pre-incubation): 200 nM | IC50 ([3]; agonist Collagen (23µg/ml), TRI 50b added after incubation with activator, read-out: I C50 without incubation): 300 nM | IC50 ([3]; agonist Thrombin/Collagen, TRI 50b added 1 minute prior to activator, read-out: I C50 plus pre-incubation): 3 nM | IC50 ([3]; agonist Thrombin/Collagen, TRI 50b added after incubation with activator, read-out: I C50 without incubation): 80 nM | effect on ADP, collagen or epinephrine induced aggregation (washed platelets): does not have an effect | Area under curve ([4]; 1.0mg/kg iv, n=3): 1.68 | Max Plasma Concentration (observed) ([4]; 1.0mg/kg iv, n=3): 2.24 | Vd ([4]; plasma, iv, 1 mg/kg): 0.5 L/kg | hydrolysis to the acid form (TRI 50c) [5]: short half life | THROMBUS WEIGHT AFTER 20 minute run (platelet rich thrombus; 3.0mg/kg iv): 15.3 ±2.2 mg(n=5) | bleeding (platelet rich thrombus; 3mg/kg to 10mg/kg iv): without bleeding | THROMBUS WEIGHT AFTER 20 minute run (platelet rich thrombus; 10mg/kg iv): 9.78 ±1.9 mg(n=5)

COCCC[C@H](NC(=O)[C@@H]1CCCN1C(=O)[C@@H](Cc1ccccc1)NC(=O)OCc1ccccc1)B(O)O [lithium salt]
solubility [6]: 43 mg/mL
